Measured values published in PubChem BioAssay (NCI).
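Cells were grown in 96-well plates and exposed to each compound for 48 hours at five concentrations; endpoints were interpolated linearly between bracketing concentrations, or set to the highest concentration if not reached. GI50 = concentration required for 50% inhibition of growth. TGI denotes the concentration required for complete inhibition of growth.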

What was measured:
Assay in all cases: NCI-60 cell line screen, 48 h
IGROV1 ovarian = tested on: IGROV1 ovarian
DLD-1 colon = tested on: DLD-1 colon
NCI-H460 lung = tested on: NCI-H460 lung
CCRF-CEM leukemia = tested on: CCRF-CEM leukemia
NCI-H522 lung = tested on: NCI-H522 lung
SF-268 CNS = tested on: SF-268 CNS
OVCAR-3 ovarian = tested on: OVCAR-3 ovarian
K-562 leukemia = tested on: K-562 leukemia
M19-MEL melanoma = tested on: M19-MEL melanoma
MDA-MB-435 = tested on: MDA-MB-435

Compound	TGI (IGROV1 ovarian) [µM]	TGI (DLD-1 colon) [µM]	TGI (NCI-H460 lung) [µM]	TGI (CCRF-CEM leukemia) [µM]	TGI (NCI-H522 lung) [µM]	TGI (SF-268 CNS) [µM]	TGI (OVCAR-3 ovarian) [µM]	TGI (K-562 leukemia) [µM]	TGI (M19-MEL melanoma) [µM]	GI50 (IGROV1 ovarian) [µM]	GI50 (NCI-H460 lung) [µM]	GI50 (CCRF-CEM leukemia) [µM]	GI50 (NCI-H522 lung) [µM]	GI50 (SF-268 CNS) [µM]	GI50 (OVCAR-3 ovarian) [µM]	GI50 (MDA-MB-435) [µM]	TGI (MDA-MB-435) [µM]	GI50 (K-562 leukemia) [µM]
CCC(=O)CC(=O)CCC(=O)Nc1cc(C)ccc1C	> 100	> 100	> 100	> 100	> 100	> 100	> 100	> 100										
O=c1/c(=C/c2ccccc2[N+](=O)[O-])sc2nnc(-c3ccco3)n12	56.3	97.1	56.2	49.8	32.9	46.3	32.4	> 100	38.3									
Cc1c2n(c(=O)[nH]c1=O)C1OC(CO)C(O2)C1O (stereo unspecified)	> 100	> 100	> 100	> 100	> 100	> 100	> 100	> 100	> 100									
c1ccc2cc(-c3cc4ccccc4s3)ccc2c1	> 100	> 100	> 100	> 100	> 100	> 100	> 100	> 100	> 100									
O=C1c2ccccc2C(=O)N1CCn1ccc(NC(c2ccccc2)(c2ccccc2)c2ccccc2)nc1=O	58.4	38.9	65.5	59.3	45.9	45.3	65.8	63.8	32.6									
O=C(Nc1ccn(CCO)c(=O)n1)c1ccccc1	> 100	> 100	> 100	> 100	> 100	> 100	> 100	> 100	> 100									
CC1(C)COC(C2(C)C(=O)C=C(c3ccccc3)c3ccccc32)=N1 (stereo unspecified)	> 100	> 100	> 100	> 100	> 100	> 100	> 100	> 100	> 100									
NC(=S)N/N=C(\CC1OC(=O)c2ccccc21)c1ccc(Cl)cc1 (stereo unspecified)	> 100	> 100	> 100		63.8	> 100	> 100	> 100	66.1									
O=C1CCC(Cl)=CC2CCCN12 (stereo unspecified)	> 100	> 100	> 100					> 100	> 100									
O=C(CCN(C(=O)O)S(=O)(=O)c1ccc(NC(=O)c2ccccc2)cc1)Nc1ccccc1	> 100	> 100	> 83.6	> 81.2	> 100	> 100	> 100	> 83.2	> 100									
COc1cccc(F)c1C(=O)c1cnc(NC2CCN(S(C)(=O)=O)CC2)nc1N	> 25		> 25	> 25	> 23.7	> 21.4	19	> 25		3.9	0.862	2.51	7.87	5.96	4.6	2.48	> 25	6.55
Cc1cc(Cl)cc(OCCn2cc(F)cn2)c1-c1nc(N)nc2c1CN(C(=O)NCC(C)(F)F)C2	> 100		> 100	> 100	> 100	> 100	> 100	> 100		0.138	0.0414	0.0507	0.0781	> 55.4	0.54	0.0578	> 100	0.0519
